Tests used:
HCT-8 cells = assay: CytoTox 96 Non-Radioactive Cytotoxicity Assay; type: cell-based, Human
Procedure: (§1) HCT-8 cell lines (Human ileocecal adenocarcinoma) were purchased from The European Collection of Authenticated Cell Cultures (ECACC) under catalogue number No 90032006) and maintained with regular subculturing in a growth medium consisting in a RPMI 1640 medium supplemented with 1 mM sodium pyruvate, 2 mM l-glutamine, 10 % (vol/vol) of heat-inactivated fetal calf serum, 100 U/mL of penicillin and 100 μg/mL of streptomycin. Cells were grown in an incubator at 37 °C with 5 % (vol/vol) CO2 until monolayers reached 80–90 % confluency. Cells were cultivated in 96-well format plate for molecular analysis and in Lab-Tek™ Chamber Slides for microscopic analysis. 50,000 cells were seeded and incubated during 24 h (until confluency) before infection.
(§2) The compounds (2 mg/mL in DMSO) were diluted to 500 μM and serially diluted in maintenance medium. The cytotoxicity of the compounds was assessed using the CytoTox 96® Non-Radioactive Cytotoxicity Assay (Promega, G1790) in accordance with the manufacturer's protocol.
(§3) An initial screening experiment was conducted on the full library to evaluate the cytotoxicity effects on HCT-8 cells. Nitrophenylurea 12 was identified as being cytotoxic so was not progressed further (See Supporting Information). In total, 21 candidates were assessed for their ability to inhibit C. parvum replication at a concentration of 10 μM. Each compound was added at the start of the infection of HCT-8 cells (T0) and remained in the culture for 48 h post infection (hpi). Parasitic quantification was then performed using a molecular method (qPCR). Of the 21 compounds tested, nine were effective inhibitors, reducing parasite proliferation by 80 % or more (Fig. 6). A clear trend emerged with all of the benzyl-substituted ureas 6–10 displaying poor inhibitory activity, regardless of the attached heteroaryl substituent. […] Two exceptions to this were imidazole-containing analogues 18 and 19. […] Among the squaramide series, the results were highly dependent on the nature of the substituent, ranging from high (e.g. ketone 29, furan 32), medium (e.g. 3-pyrazole 30) to low (e.g. 4-pyrazole 31) anti-cryptosporidial activity.

[1] = CytoTox 96 Non-Radioactive Cytotoxicity Assay; type: cell-based, Human; settings: human; HCT-8 cells, 10 µM
Procedure: as §1, §2, §3

C. parvum [2] = tested on: C. parvum; parameters: method as in Funkhouser-Jones et al., 2020; settings: ref Funkhouser-Jones et al., 2020; cited from earlier work
C. parvum [3] = assay: Inhibition of C. parvum replication in infected HCT-8 cells, parasite quantification by qPCR; type: cell-based, Cryptosporidium parvum (Iowa strain) in human HCT-8 cells; settings: qPCR
Procedure: as §1
(§4) C. parvum oocysts of “Iowa” strain was purchased from Waterborne Inc. and stored in PBS at 4 °C. A ratio of one oocyst per cell was used to infect HCT-8 cell. Oocysts suspension was incubated with 10 % of a solution (vol/vol) containing 0.5 % sodium hypochlorite for 10 min at 4 °C. After a washing step by centrifugation at 1800g for 15 min at 4 °C, oocysts were incubated in acidified water (pH 2.4) containing 0.025 % (wt/vol) of trypsin, at 37 °C for 20 min, to trigger excystation (infectivity assay developed by [Keegan et al., 2003]). After a third centrifugation step at 1800 g for 10 min, oocysts were suspended in a maintenance medium. The maintenance medium consisted of RPMI 1640 medium with 2 mM l-glutamine, 5 mM glucose, 0.5 μM folic acid, 7 μM 4-amino-benzoic acid, 0.1 μM calcium pantothenate, 50 nM ascorbic acid, 2 % (vol/vol) heat inactivated fetal calf serum and 100 U/mL of streptomycin/penicillin. Before oocyst inoculation, the growth medium was switched with maintenance medium. Triggered oocysts were finally added on monolayers and incubated during 48 h at 37 °C in a 5 % (vol/vol) CO2 atmosphere.
as §2
The COWP gene (GenBank no. AF248743) was amplified by qPCR following the previously described protocol ([Guy et al., 2003]), and the parasitic concentration was determined using the standard range of C. parvum oocyst concentrations. Briefly, serial dilutions from a pure C. parvum oocyst suspension were made starting from a stock solution of 5 × 10^7 oocysts (4 × 10^5 – 2 × 10^5 – 1 × 10^5 – […]–2.5 × 10^3–1.25 × 10^3 oocysts) and the standard curve for quantifying parasites was created to obtain a correlation between Cq values and the Log of concentration.
At the end of the experiment, supernatants from the C. parvum-infected cell cultures were collected. The cell layers were then washed (1x PBS), detached using trypsin (0.25 %), and centrifuged (10,000×g, 10 min). The resulting cell pellet was re-suspended in 150–200 μL of sterile 1x PBS and stored at −20 °C for later DNA extraction. DNA extraction of C. parvum was performed using the Purelink™ Microbiome Purification Kit (Invitrogen™) following the manufacturer's protocol “Transport Media and Microbial Culture Samples” ([Invitrogen, 2015]).
FRePCR reactions were formulated to a volume of 25 μL and comprised of 1.25 μL of primers (10 μM), 0.05 μL probe (100 μM), 12.5 μL Master Mix 2X, LightCycler 480 Probes Master (ref. 04707494001, Roche), 4.95 μL H2O nuclease-free and 5 μL of DNA template. Quantitative PCR was run on a CFX96 real time PCR system (BioRad) with an initial step of activation (10 min 95 °C) following by 40 cycles with cycling conditions as follows: 95 °C for 10 s, 60 °C for 1 min. BioRad CFX manager software was used to analyse the data. Samples were considered negative if Cq ≥ 40.
A common way of defining a 50 % response is to use a mathematical model like the 4-parameter logistic model (4 PL) ([Sebaugh, 2011]). […]

C. parvum [4] = assay: Quantification of C. parvum development in HCT-8 cells by immunofluorescence microscopy; type: cell-based, Cryptosporidium parvum (Iowa strain) in human HCT-8 cells; settings: for reduction in parasite quantification: 7.5 μM
Procedure: as §1, §4
After aspiration of the supernatant from the Nunc™ Lab-Tek™ Chamber slide wells, cells were rinsed with PBS 1X. A fixation step was then performed using methanol during 8 min at 4 °C. Cryptosporidium developmental forms were labelled with a polyclonal IgG antibodies reaction kit tagged with Cy3 (Sporo-Glo™, Waterborne Inc.) and oocysts were labelled with FL-Crypt-a-Glo™, a fluorescein-labelled mouse monoclonal antibody made to oocyst outer wall antigenic sites (epitopes) of C. parvum. Antibodies were 1/20th diluted and incubated on cells for 1 h at room temperature. DNA was labelled with Hoechst for 5 min at room temperature. Slides were then coverslipped with a no fading mounting medium (Waterborne Inc.) and observed with a Leica DMi8 microscope. Each dilution was performed in triplicate and, for each well, ten images were taken at 400× magnification. Parasite quantification was carried out automatically using the StarDist neural network, which was specifically trained to detect and quantify C. parvum parasites.
To confirm our initial findings, we employed an alternative method using immunofluorescence microscopy to quantify C. parvum development in the presence of inhibitors (Fig. S1). […] The results corroborated our initial screening data, confirming the high efficacy of all tested chloronitrophenyl urea analogues, except for imidazole derivatives 18 and 19.
To test this hypothesis, increasing concentrations of squaramide 32 (i.e. 0, 2, 4 and 8 μM) were applied at different infection times: at 0 hpi (hours post infection), to assess the impact on parasite invasion; at 4 hpi, to examine the effect on the early stages of intracellular development; and at 30 hpi, to evaluate the influence on late stage intracellular development. The microscopic images in Fig. 7 illustrate the effect of 32 when applied at the onset of infection and at 30 hpi. Using fluorescent antibodies, the intracellular development of C. parvum is highlighted by green fluorescence, which allows for quantification of the number of parasites per image.

Cryptosporidium = settings: cited from earlier work

CC(C)(NC(=O)Nc1ccc(Cl)c([N+](=O)[O-])c1)c1cccc(-c2cccc([N+](=O)[O-])c2)c1 [Compound 12, 1-(4-chloro-3-nitrophenyl)-3-(2-(3′-nitro-[1,1′-biphenyl]-3-yl)propan-2-yl)urea]
cytotoxicity (in words) (HCT-8 cells; initial screening): cytotoxic | viability at 10 µM [1]: 58%

COc1ccc(NC(=O)N2CCCCN3[C@H](CN(C)C)[C@H](c4ccc(C#Cc5ccccc5)cc4)[C@@H]3C2)cc1 [BRD7929]
stage-specific effect on C. parvum development (in words) (C. parvum [2]): blocks nuclear division and arrest development at the trophozoite

CC(C)(Nc1c(Nc2ccc(Cl)c([N+](=O)[O-])c2)c(=O)c1=O)c1cccc(-c2ccco2)c1 [Compound 32, (2-((4-Chloro-3-nitrophenyl)amino)-3-((2-(3-(furan-2-yl)phenyl)propan-2-yl)amino)-4-oxocyclobut-2-en-1-ylidene)oxonium]
anti-cryptosporidial activity (in words) (C. parvum [3]; 10 μM, added at T0, 48 hpi): high | inhibition rate of C. parvum replication (C. parvum [3]; 10 μM, added at start of infection (T0), 48 hpi, mean ± SD (n = 3 wells)): 87.2 ± 0.8% | IC50 (C. parvum [3]; compounds at 0, 3, 6 and 9 μM added at t0 and left until 48 hpi, read-out: IC50): 2.2 µM | effect on intracellular development (green fluorescence) (C. parvum [4]; 2 μM, applied at onset of infection (0 hpi)): significantly reduces green fluorescence | effect on distribution of parasite area (C. parvum [4]; 7.5 μM or 15 μM, added at 30 hpi until 48 hpi): decreases the prevalence of both small and large parasites | reduction in parasite quantification (C. parvum [4]; added at 0 hpi, fluorescence microscopy): > 80% | reduction in parasite quantification (C. parvum [4]; added at 30 hpi, until 48 hpi, fluorescence microscopy): 46% | reduction of parasite load (C. parvum [4]; 8 μM, added at 30 hpi, 18 h of treatment, fluorescence microscopy): < 50% | Viability (HCT-8 cells; 10 µM): 94.94%

CC(=O)Oc1ccccc1C(=O)Nc1ncc([N+](=O)[O-])s1 [nitazoxanide]
efficacy in immunocompromised patients (in words) (Cryptosporidium; even when administered in high doses, ref Rossignol et al., 1998): ineffective | efficacy in children (in words) (Cryptosporidium; ref Amadi et al., 2002): limited

CNC(=O)c1ccc(-c2cnc3cnc(C(=O)N(C)c4ccc(Cl)cc4)cn23)cc1 [KDU691]
stage-specific effect on C. parvum development (in words) (C. parvum [2]): effective at later stages

— article PMC12123366, “Effect of urea and squaramide IMPDH inhibitors on C. parvum: in vitro trial design impacts the assessment of drug efficacy” (International Journal for Parasitology: Drugs and Drug …, 2025)
